Consider 21 molecules from US7825264B2, “Substituted heterocycles, their use as medicament, and pharmaceutical preparations comprising them” (sanofi-aventis, priority 2005, dated 2010).

Assay [1] deals with T1, Human Kv1.5 channels (Homo sapiens, UniProt P22460).
T1 construct: expressed in transfected cells; host or cells: Xenopus laevis oocytes injected with RNA synthesized in vitro
As to the kind of experiment: Activity on the Kv1.5 channel: two-microelectrode voltage clamp on Xenopus oocytes expressing Kv1.5. The class given is cell-based. As to conditions: human Kv1.5 expressed in Xenopus oocytes, room temperature, Hill equation; read-out: Kv1.5 IC-50. The method, then:
Determination of the Activity on the Kv1.5 Channel
Human Kv1.5 channels were expressed in xenopus oocytes. For this purpose, firstly oocytes were isolated from Xenopus laevis and defolliculated. Kv1.5-encoding RNA synthesized in vitro was then injected into these oocytes. After Kv1.5 protein expression for 1-7 days, Kv1.5 currents were measured on the oocytes using the two-microelectrode voltage clamp technique. The Kv1.5 channels were in this case usually activated with voltage jumps lasting 500 ms to 0 mV and 40 mV. A solution of the following composition flowed through the bath: NaCl 96 mM, KCl 2 mM, CaCl2 1.8 mM, MgCl2 1 mM, HEPES 5 mM (titrated to pH 7.4 with NaOH). These experiments were carried out at room temperature. The following were employed for data acquisition and analysis: Geneclamp amplifier (Axon Instruments, Foster City, USA) and MacLab D/A converter and software (ADInstruments, Castle Hill, Australia). The substances of the invention were tested by adding them in various concentrations to the bath solution. The effects of the substances were calculated as percent inhibition of the Kv1.5 control current which was obtained when no substance was added to the solution. The data were then extrapolated using the Hill equation in order to determine the inhibitory concentrations IC50 for the respective substances.

In assay [2] the target is Human TASK-1 channels (UniProt O35111). As to the kind of experiment: Activity on the TASK-1 channel: two-microelectrode voltage clamp on Xenopus oocytes expressing TASK-1. In kind it is cell-based. The following applies: TASK-1 expressed in Xenopus oocytes, room temperature, Hill equation; read-out: mTask-1 IC-50.

T1 sequence (P22460 whole entry): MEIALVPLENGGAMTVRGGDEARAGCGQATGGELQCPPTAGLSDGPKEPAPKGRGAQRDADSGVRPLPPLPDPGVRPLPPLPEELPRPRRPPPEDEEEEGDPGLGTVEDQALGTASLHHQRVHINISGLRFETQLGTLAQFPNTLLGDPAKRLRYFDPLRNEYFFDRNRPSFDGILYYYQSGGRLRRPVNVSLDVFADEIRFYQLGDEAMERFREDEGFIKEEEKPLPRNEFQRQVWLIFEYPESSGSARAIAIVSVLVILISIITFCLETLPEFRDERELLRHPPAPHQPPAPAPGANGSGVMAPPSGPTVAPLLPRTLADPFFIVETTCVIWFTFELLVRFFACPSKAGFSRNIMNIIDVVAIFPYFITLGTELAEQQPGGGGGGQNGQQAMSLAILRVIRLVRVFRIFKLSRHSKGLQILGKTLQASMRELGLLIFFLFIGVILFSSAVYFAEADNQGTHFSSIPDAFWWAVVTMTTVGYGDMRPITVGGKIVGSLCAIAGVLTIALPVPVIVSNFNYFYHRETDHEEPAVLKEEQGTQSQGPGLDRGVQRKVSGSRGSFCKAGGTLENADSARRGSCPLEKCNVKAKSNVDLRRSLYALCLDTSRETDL

For `N#Cc1ccc(O[C@@H](c2cccc3cccnc23)[C@@H](c2ccc(F)cc2)N2CCCC2=O)cc1` (racemic) [Example 9, 4-[(1S′,2R′)-2-(4-Fluorophenyl)-2-(2-oxopyrrolidin-1-yl)-1-quinolin-8-ylethoxy]benzonitrile], the IC50 is 4.2 µM in assay [1] and 400 nM in assay [2].

For the molecule `CO[C@H](c1ccc(Cl)cc1)[C@H](c1ccccc1)N1CCCC1=O` (racemic) [Example 46], the IC50 in assay [1] amounted to 1.5 µM; in assay [2], 5400 nM.

In the case of `O=C1CCCN1[C@@H](c1ccccc1)[C@H](OCc1ccccc1)c1ccc(Cl)cc1` (racemic) [Example 72], the IC50 in assay [1] was 2.1 µM.

As for `N#Cc1ccc(O[C@H](c2ccc(F)c(F)c2)[C@H](c2ccc(F)cc2)N2CCCC2=O)cc1` (racemic) [Example 4, 4-[(1R′,2S′)-1-(3,4-Difluorophenyl)-2-(4-fluorophenyl)-2-(2-oxopyrrolidin-1-yl)ethoxy]benzonitrile], the results for the IC50 in assay [1] and in assay [2] were 3.9 µM and 2300 nM, respectively.

On to `CO[C@@H](c1ccc(F)cc1)[C@H](c1ccccc1)N1CCCC1=O` (racemic) [Example 88], for which the IC50 in assay [1] turned out to be 4 µM.

For the molecule `COc1ccc(CO[C@@H](c2ccccc2)[C@@H](c2ccccc2)N2CCCCC2=O)cc1` [Example 103], the IC50 in assay [1] was 6.6 µM.

Consider `CO[C@H](c1ccccc1)[C@H](c1ccccc1)N1CCCC1=O` [Example 85], for which, in assay [1], the IC50 stood at 3.6 µM.

In the case of `O=C1CCCN1[C@@H](c1ccc(F)cc1)[C@H](OCCCC(F)(F)F)c1ccc(F)c(F)c1` (racemic) [Example 34], in assay [1], the IC50 stood at 1 µM.

For the molecule `CO[C@H](c1ccc(F)cc1)[C@H](c1ccccc1)N1CCCC1=O` (racemic) [Example 77], the IC50 in assay [1] was 2.7 µM.

As to `COc1ccc(CO[C@H](c2ccc(F)cc2)[C@H](c2cccc3cccnc23)N2CCCC2=O)cc1` (racemic) [Example 98], the IC50 in assay [1] stood at 5.5 µM.

Take `CO[C@H](C1CCCCC1)[C@H](c1ccc(F)cc1)N1CCCC1=O` (racemic) [Example 78]: the IC50 in assay [1] amounted to 3.3 µM.

For `O=C1CCCN1[C@@H](c1ccc(F)cc1)[C@H](OCC1CC1)c1ccc(F)cc1` (racemic) [Example 117], the IC50 in assay [1] turned out to be 0.3 µM.

Consider `N#Cc1ccc(O[C@H](c2ccccc2)[C@H](c2ccccn2)N2CCCC2=O)cc1` (racemic) [Example 96], for which, in assay [1], the IC50 worked out at 5.1 µM.

Take `C#CCO[C@H](c1ccc(F)c(F)c1)[C@H](c1ccc(F)cc1)N1CCCC1=O` (racemic) [Example 38]: the IC50 in assay [1] was 0.7 µM.

In the case of `O=C1CCCN1[C@H](c1ccc(F)cc1)[C@H](OCC1CC1)c1ccc(F)cc1` (racemic) [Example 27], the IC50 in assay [1] came out at 0.6 µM.

With `COc1ccc([C@@H](Oc2ccc(C(C)=O)cc2)[C@H](c2ccc(F)cc2)N2CCCC2=O)cc1` (racemic) [Example 110], the IC50 in assay [1] was found to be 9.7 µM.

Consider `CCO[C@H](c1ccc(Cl)cc1)[C@H](c1ccccc1)N1CCCC1=O` (racemic) [Example 68], for which the IC50 in assay [1] was found to be 0.5 µM.

With `O=C1CCCN1[C@@H](c1ccccn1)[C@H](OCCF)c1ccccc1` (racemic) [Example 104], in assay [1], the IC50 amounted to 6.7 µM.

Regarding `N#Cc1ccc(O[C@H](c2ccc(F)cc2)[C@H](c2cccc3cccnc23)N2CCCC2=O)cc1` (racemic) [Example 55], in assay [1], the IC50 was 1.1 µM.

On to `C[C@@](c1ccccc1)([C@H](OCC1CC1)c1ccccc1)N1CCCC1=O` (racemic) [Example 31], for which the IC50 in assay [1] came to 1.4 µM.

Regarding `O=C1CCCN1[C@@H](c1ccc(F)cc1)[C@H](Oc1ccccn1)c1ccc(F)c(F)c1` (racemic) [Example 114], the IC50 in assay [1] was about 10 µM.
